In patent US7387806B2, “Method of using geranium oil and sophora root extracts as a supporting composition in cancer treatments” (priority 2001, dated 2008):

Experiment: Pharmacokinetics study of intravenous injection of matrine or oxymatrine with addition of geranium oil
Method: The Sophora root typically is about 10-30 cm long, 1-2 cm in diameter and generally takes on a grayish brown or grayish yellow color. The root preferably has a mild scent and an extremely bitter taste. It is grown mainly in China, Korea, and Japan. Presently, the alkaloids identified in Sophora roots are matrine, oxymatrine, sophoranol, N-methylcytisine, anagyrine, baptifoline, sophocarpine, sophoridine, iso matrine, 7, 11-Dehydromatrine, sophoramine, 7-Dehydrosophoramine, 9α-Hydroxy-Sophoramine, 5α,9α-Dihydroxymatrine, N-Oxysophocarpine, sophoranol N-oxide, rhombifoline, Lupanine, Mamanine, Kuraramine, Isokuraramine, Kurarinol. The known main constituents are matrine, oxymatrine. The principal main constituents of Sophora flavescenes are also found in Sophora subprostrata, Sophora tonkinensis, Sophora alopecuroides, Sophora moorcroftiana, and Euchresta strigillosa.

Row | effect of addition of geranium oil on absorption and metabolism of the compound (in vivo, iv) | Compound | effect of addition of geranium oil on absorption and metabolism of the compound (intravenous injection, with vs without geranium oil)
1 |  | O=C1CCC[C@@H]2[C@H]3CCCN4CCC[C@@H](CN12)[C@@H]34 [matrine] | increase the absorption and metabolism
2 | increase the absorption and metabolism | O=C1CCC[C@@H]2[C@H]3CCC[N+]4([O-])CCC[C@@H](CN12)[C@@H]34 (some centres unmarked) [oxymatrine] | 
